Literature values as cited in patent US7125861B2, “Water-soluble chitosan-indole-3-propionic acid conjugates” (priority 2003, dated 2006).

Conditions: background statement on unconjugated indole-3-propionic acid

- solubility in water: not water soluble
Structure (SMILES): O=C(O)CCc1c[nH]c2ccccc12 [indole-3-propionic acid, 3-(3-Indolyl)propanoic acid]
